Counter-ions that a name gives are not always drawn. Like-named read-outs stand apart in the source and are kept apart here.
Assays:
PI3Kβ = biological target: T1, PI3Kβ (Homo sapiens, UniProt P42338); experiment: Enzyme binding assay (KINOMEscan, DiscoveRx); details: PIK3Cβ_h, read-out: Kd PIK3Cβ_h
T1 construct: purchased DiscoveRx Corporation, San Diego (contract service, KINOMEscan)
Procedure, shortened: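 Kinase binding affinities were measured with KINOMEscan technology. Results are given as Kd, the inhibitor binding constant, in nM.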

PI3Kδ = biological target: T2, PI3Kδ (Homo sapiens, UniProt O00329); experiment: Enzyme binding assay (KINOMEscan, DiscoveRx); details: PIK3Cδ_h
T2 construct: purchased DiscoveRx Corporation, San Diego (contract service, KINOMEscan)
T2 sequence (O00329 1-1044): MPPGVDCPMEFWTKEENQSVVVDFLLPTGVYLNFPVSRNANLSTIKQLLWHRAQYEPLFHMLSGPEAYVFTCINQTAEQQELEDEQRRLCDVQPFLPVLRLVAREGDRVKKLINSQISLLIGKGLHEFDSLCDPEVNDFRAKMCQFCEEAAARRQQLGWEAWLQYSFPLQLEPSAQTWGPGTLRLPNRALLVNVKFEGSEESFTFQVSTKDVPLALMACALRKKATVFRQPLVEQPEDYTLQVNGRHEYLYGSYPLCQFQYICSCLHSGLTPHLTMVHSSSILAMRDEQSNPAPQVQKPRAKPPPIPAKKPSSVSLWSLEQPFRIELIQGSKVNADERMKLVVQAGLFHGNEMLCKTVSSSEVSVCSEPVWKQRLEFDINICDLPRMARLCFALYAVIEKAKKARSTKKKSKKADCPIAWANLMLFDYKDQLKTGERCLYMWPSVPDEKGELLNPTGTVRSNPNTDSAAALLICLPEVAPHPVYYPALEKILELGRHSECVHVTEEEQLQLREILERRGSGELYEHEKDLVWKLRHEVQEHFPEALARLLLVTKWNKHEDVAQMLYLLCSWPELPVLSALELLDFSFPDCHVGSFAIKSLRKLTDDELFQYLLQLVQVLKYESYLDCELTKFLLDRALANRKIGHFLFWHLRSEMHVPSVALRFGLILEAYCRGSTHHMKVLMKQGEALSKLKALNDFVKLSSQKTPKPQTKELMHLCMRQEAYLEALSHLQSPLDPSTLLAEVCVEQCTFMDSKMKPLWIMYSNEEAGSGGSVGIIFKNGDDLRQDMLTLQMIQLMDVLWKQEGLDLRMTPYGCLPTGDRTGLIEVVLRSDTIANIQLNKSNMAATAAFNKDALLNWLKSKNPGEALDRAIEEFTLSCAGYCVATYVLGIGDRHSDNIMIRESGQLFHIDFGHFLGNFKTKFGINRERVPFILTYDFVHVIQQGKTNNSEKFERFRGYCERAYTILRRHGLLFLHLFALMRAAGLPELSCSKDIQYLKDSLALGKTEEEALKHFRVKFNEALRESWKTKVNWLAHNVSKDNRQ
Procedure, shortened: (§1)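 Binding affinities were measured on the KINOMEscan platform.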

kinase enzymes [1] = biological target: T3, kinase enzymes (Homo sapiens, UniProt P48736); experiment: Enzyme binding assay (KINOMEscan, DiscoveRx), further kinases of Table A; details: PIK3Cγ_h
T3 construct: purchased DiscoveRx Corporation, San Diego (contract service, KINOMEscan)
Procedure, shortened: as §1

kinase enzymes [2] = biological target: T4, kinase enzymes (Homo sapiens, UniProt P42345); experiment: as above; details: MTOR_h
T4 construct: purchased DiscoveRx Corporation, San Diego (contract service, KINOMEscan)
Procedure, shortened: as §1

kinase enzymes [3] = biological target: T5, kinase enzymes (Homo sapiens, UniProt P42336); experiment: as above; details: PIK3Cα_h
T5 construct: purchased DiscoveRx Corporation, San Diego (contract service, KINOMEscan)
Procedure, shortened: as §1

[4] = system: Akt phosphorylated at Ser473 in PC-3 cells; experiment: Cellular assay: phosphorylation of Akt at Ser473 in PC-3 cells (MSD ELISA); format: cell-based; details: PC-3 cells, 60 min compound incubation, MSD ELISA, read-out: IC50 pAkt_S473
Procedure, shortened: (§2)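 Phospho-Akt in whole-cell lysates is quantified by electrochemiluminescent immunoassay using phospho-site capture and total-Akt detection antibodies.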

[5] = system: Akt phosphorylated at Thr308 in PC-3 cells; experiment: Cellular assay: phosphorylation of Akt at Thr308 in PC-3 cells (MSD ELISA); format: cell-based; details: PC-3 cells, 60 min compound incubation, MSD ELISA, read-out: IC50 pAkt_Thr308
Procedure, shortened: as §2

T1 sequence (P42338 whole entry): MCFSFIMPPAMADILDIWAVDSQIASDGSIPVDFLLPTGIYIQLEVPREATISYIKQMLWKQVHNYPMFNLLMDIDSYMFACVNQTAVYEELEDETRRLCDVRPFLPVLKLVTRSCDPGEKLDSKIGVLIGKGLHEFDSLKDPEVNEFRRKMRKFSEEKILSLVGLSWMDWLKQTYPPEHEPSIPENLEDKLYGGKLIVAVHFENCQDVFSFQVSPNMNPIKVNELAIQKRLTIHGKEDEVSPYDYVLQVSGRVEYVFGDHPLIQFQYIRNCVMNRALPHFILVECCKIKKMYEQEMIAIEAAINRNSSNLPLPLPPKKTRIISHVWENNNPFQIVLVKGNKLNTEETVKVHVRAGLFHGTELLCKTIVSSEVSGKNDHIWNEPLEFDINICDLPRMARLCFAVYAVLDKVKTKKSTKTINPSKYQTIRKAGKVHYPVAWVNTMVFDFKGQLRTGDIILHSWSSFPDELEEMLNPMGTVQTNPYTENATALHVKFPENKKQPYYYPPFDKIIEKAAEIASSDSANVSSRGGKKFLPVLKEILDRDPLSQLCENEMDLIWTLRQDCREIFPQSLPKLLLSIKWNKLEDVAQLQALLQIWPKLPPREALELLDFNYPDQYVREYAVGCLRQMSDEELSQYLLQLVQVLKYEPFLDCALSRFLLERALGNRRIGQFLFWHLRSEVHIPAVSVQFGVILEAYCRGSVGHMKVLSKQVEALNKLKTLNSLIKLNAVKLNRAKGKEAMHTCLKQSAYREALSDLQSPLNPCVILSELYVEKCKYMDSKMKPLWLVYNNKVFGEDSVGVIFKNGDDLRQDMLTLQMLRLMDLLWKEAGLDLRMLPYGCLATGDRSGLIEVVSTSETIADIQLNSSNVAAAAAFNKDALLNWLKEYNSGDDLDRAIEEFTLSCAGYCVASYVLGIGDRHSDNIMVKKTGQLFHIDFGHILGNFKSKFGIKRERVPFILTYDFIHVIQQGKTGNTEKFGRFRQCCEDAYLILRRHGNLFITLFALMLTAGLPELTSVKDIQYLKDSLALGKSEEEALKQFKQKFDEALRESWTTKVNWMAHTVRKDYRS
T5 sequence (P42336 whole entry): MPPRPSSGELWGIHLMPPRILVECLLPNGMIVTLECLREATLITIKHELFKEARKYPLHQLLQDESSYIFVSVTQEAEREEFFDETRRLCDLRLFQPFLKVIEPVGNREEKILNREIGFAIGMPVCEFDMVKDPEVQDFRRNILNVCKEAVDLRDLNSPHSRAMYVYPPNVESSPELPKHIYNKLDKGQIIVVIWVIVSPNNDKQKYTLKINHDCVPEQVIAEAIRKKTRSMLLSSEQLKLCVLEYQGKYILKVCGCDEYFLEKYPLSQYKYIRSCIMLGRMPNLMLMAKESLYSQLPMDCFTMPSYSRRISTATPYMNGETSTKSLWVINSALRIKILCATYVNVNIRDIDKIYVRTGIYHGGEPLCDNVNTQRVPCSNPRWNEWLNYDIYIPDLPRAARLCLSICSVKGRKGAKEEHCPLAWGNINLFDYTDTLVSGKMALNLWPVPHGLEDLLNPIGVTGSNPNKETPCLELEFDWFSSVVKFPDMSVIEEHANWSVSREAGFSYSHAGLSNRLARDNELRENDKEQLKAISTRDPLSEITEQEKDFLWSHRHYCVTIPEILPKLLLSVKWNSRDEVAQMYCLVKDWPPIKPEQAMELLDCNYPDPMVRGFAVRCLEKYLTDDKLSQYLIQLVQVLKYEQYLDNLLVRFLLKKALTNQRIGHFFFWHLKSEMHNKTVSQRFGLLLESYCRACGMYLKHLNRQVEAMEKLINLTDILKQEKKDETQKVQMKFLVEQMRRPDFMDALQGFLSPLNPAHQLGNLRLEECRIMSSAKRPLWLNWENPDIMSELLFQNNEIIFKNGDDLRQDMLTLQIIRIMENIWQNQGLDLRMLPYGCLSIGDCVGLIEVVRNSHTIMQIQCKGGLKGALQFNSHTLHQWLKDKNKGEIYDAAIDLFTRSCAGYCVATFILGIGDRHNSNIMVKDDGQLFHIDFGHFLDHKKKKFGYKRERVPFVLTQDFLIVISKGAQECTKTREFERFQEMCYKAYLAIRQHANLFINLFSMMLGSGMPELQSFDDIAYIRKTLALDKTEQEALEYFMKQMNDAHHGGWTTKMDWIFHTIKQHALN
T3 sequence (P48736 whole entry): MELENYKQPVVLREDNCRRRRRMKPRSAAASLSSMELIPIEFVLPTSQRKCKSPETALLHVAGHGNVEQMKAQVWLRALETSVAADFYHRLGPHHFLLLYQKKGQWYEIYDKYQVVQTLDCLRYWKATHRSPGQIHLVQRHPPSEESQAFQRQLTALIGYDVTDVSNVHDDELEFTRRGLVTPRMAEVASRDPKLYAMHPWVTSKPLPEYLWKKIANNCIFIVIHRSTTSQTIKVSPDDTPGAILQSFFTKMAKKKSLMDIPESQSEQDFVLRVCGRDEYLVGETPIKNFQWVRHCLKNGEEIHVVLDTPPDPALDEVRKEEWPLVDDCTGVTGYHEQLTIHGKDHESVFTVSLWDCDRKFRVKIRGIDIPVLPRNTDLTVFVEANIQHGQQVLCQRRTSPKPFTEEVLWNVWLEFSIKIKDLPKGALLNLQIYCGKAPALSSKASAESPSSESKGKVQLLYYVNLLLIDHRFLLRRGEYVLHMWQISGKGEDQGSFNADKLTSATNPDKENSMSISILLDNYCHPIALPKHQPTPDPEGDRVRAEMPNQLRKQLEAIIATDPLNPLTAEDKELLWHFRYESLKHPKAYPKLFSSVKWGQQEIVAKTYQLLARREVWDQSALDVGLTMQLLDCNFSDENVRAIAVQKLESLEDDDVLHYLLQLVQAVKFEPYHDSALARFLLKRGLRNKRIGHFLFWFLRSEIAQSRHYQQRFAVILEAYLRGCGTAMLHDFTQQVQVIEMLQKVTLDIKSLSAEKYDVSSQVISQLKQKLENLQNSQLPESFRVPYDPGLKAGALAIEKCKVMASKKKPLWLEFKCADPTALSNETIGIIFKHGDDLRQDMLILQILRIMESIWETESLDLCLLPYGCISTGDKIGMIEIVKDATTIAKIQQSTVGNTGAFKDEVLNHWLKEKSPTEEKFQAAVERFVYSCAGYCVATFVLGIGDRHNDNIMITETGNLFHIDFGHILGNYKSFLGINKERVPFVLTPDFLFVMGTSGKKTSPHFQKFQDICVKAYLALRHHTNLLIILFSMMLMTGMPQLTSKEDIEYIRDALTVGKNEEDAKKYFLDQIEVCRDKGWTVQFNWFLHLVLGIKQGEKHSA

SMILES | melting point | Kd (PI3Kβ) | Kd (PI3Kδ) | Kd (kinase enzymes [1]) | Kd (kinase enzymes [2]) | Kd (kinase enzymes [3]) | IC50 ([4]; Homo sapiens, PC-3, 1 h) | IC50 ([5]; Homo sapiens, PC-3, 1 h) | IC50 [4] | IC50 [5]
C[C@@H](Nc1cc(F)cc(F)c1)c1cc(C(=O)NCCN(C)C)cc2ncc(N3CCOCC3)nc12 (as salt: HCl) [Compound 184a] | 80 °C | – | – | – | – | – | – | – | – | –
CC1CN(C(=O)c2cc(C3CCCN3c3cc(F)cc(F)c3)c3nc(N4CCOCC4)cnc3c2)CC(C)N1 (stereo not drawn) [Compound 39] | 80 °C | – | – | – | – | – | – | – | – | –
Cc1ccc(NC(C)c2cc(C(=O)NCCN(C)C)cc3ncc(N4CCOCC4)nc23)cc1F (single isomer, unassigned) [Compound 407b] | 105 °C | 339 nM | 2950 nM | 3800 nM | > 30200 nM | 4370 nM | – | – | – | –
COC(=O)c1cc(C(C)Nc2cccc(F)c2)c2nc(N3CCOCC3)cnc2c1 (single isomer, unassigned) [Compound 262b] | 199.5 °C | 11500 nM | > 30200 nM | > 30200 nM | > 30200 nM | > 30200 nM | – | – | – | –
[2H]C([2H])(O)C([2H])([2H])NC(=O)c1cc(C(C)Nc2cccc(F)c2)c2nc(N3CCOCC3)cnc2c1 (single isomer, unassigned) [Compound 408b] | 123 °C | 324 nM | 17400 nM | 8130 nM | > 30200 nM | 23400 nM | – | – | – | –
COC1CN(Cc2cc(C(C)Nc3cc(F)cc(F)c3)c3nc(N4CCOCC4)cnc3c2)CC1OC (single isomer, unassigned) (as salt: hydrochloride) [Compound 205] | 80 °C | – | – | – | – | – | – | – | – | –
CC(Nc1cc(F)cc(F)c1)c1cc(CNCC(F)(F)F)cc2ncc(N3CCOCC3)nc12 (single isomer, unassigned) (as salt: HCl) (hydrate or solvate) [Compound 163] | 239 °C | – | – | – | – | – | – | – | – | –
CC(Nc1ccc(F)c(F)c1)c1cc(C(=O)NC2CCNC2)cc2ncc(N3CCOCC3)nc12 (stereo not drawn) [Compound 325a] | 144 °C | 1320 nM | 11500 nM | 14100 nM | > 30200 nM | 10700 nM | – | – | – | –
CC(Nc1cccc(F)c1)c1cc(C(=O)N2CCC[C@H](O)C2)cc2ncc(N3CCOCC3)nc12 (single isomer, unassigned) [Compound 320b] | 136 °C | 69 nM | 5130 nM | > 30200 nM | > 30200 nM | 11500 nM | – | – | – | –
CC(Oc1ccc(F)c(F)c1)c1cc(C(=O)N2CCN3CCC[C@@H]3C2)cc2ncc(N3CCOCC3)nc12 (mixture of isomers) [Compound 375] | 80 °C | 117 nM | 2190 nM | > 30200 nM | > 30200 nM | 18600 nM | – | – | – | –
C[C@@H](Nc1cc(F)cc(F)c1)c1cc(C(=O)NCCN(C)C)cc2ncc(N3CCOCC3)nc12 (as salt: sulfuric acid salt) [Compound 184b] | 270 °C | – | – | – | – | – | – | – | – | –
C[C@@H](Nc1cc(F)cc(F)c1)c1cc(C(=O)NCCN(C)C)cc2ncc(N3CCOCC3)nc12 (as salt: sulfonic acid salt) [Compound 184c] | 74 °C | – | – | – | – | – | – | – | – | –
CC(Nc1cc(F)cc(F)c1)c1cc(CN2CCO[C@H](CO)C2)cc2ncc(N3CCOCC3)nc12 (single isomer, unassigned) (as salt: HCl) [Compound 194] | 80 °C | – | – | – | – | – | – | – | – | –
CC(Nc1cc(F)cc(F)c1)c1cc(CN2CCO[C@@H](CO)C2)cc2ncc(N3CCOCC3)nc12 (single isomer, unassigned) (as salt: HCl) [Compound 193] | 80 °C | – | – | – | – | – | – | – | – | –
COC(=O)c1cc(C(C)Nc2cc(F)c(F)c(F)c2)c2nc(N3CCOCC3)cnc2c1 (stereo not drawn) [Compound 266] | 220 °C | – | – | – | – | – | – | – | – | –
CC(Nc1cc(F)c(F)c(F)c1)c1cc(C(=O)N2CCCN(C(C)C)CC2)cc2ncc(N3CCOCC3)nc12 (single isomer, unassigned) [Compound 388b] | – | 3 nM | 200 nM | 2400 nM | > 30200 nM | 2190 nM | 38 nM | 19 nM | – | –
CC(Oc1cccc(F)c1)c1cc(C(=O)N(C)C)cc2ncc(N3CCOCC3)nc12 (single isomer, unassigned) [Compound 339b] | – | 316 nM | 1950 nM | 2190 nM | 6460 nM | 759 nM | – | – | > 513 nM | > 513 nM
C[C@@H]1CN(c2cnc3cc(C(=O)N(C)C)cc(C4CCCN4c4cccc(F)c4)c3n2)CCO1 (single isomer, unassigned) [Compound 30] | – | 1 nM | 18 nM | 407 nM | 21900 nM | 39 nM | – | – | 5 nM | ~4 nM
CNCCNC(=O)c1cc(C(C)Nc2cc(F)cc(F)c2)c2nc(N3CCOCC3)cnc2c1 (single isomer, unassigned) [Compound 406b] | – | 141 nM | 3470 nM | 3800 nM | > 30200 nM | 7410 nM | – | – | > 513 nM | > 513 nM
CC(Nc1ccc(F)c(F)c1)c1cc(C(=O)N2CCN3CCC[C@H]3C2)cc2ncc(N3CCOCC3)nc12 (single isomer, unassigned) [Compound 287a] | – | 3 nM | 234 nM | 20900 nM | > 30200 nM | 1740 nM | – | – | 31 nM | 34 nM
CC(Oc1cccc(F)c1)c1cc(C(=O)O)cc2ncc(N3CCOCC3)nc12 (single isomer, unassigned) [Compound 257b] | – | 22 nM | 468 nM | 3090 nM | 2820 nM | 851 nM | > 513 nM | > 513 nM | – | –
CC(Nc1cc(F)c(F)c(F)c1)c1cc(C(=O)NCCN(C)C)cc2ncc(N3CCOCC3)nc12 (single isomer, unassigned) [Compound 309a] | – | 0.1 nM | 59 nM | 1740 nM | 20000 nM | 1100 nM | – | – | 9 nM | 8 nM
CC(Oc1cc(F)cc(F)c1)c1cc(C(=O)N(C)CCO)cc2ncc(N3CCOCC3)nc12 (single isomer, unassigned) [Compound 61] | – | 2 nM | 209 nM | 5250 nM | > 30200 nM | 676 nM | – | – | 182 nM | 123 nM
CN[C@H]1CCN(C(=O)c2cc(C(C)Oc3cc(F)c(F)c(F)c3)c3nc(N4CCOCC4)cnc3c2)C1 (single isomer, unassigned) [Compound 405a] | – | 501 nM | 7410 nM | > 30200 nM | > 30200 nM | > 30200 nM | – | – | > 513 nM | > 513 nM
CC(Nc1cc(F)cc(F)c1)c1cc(C(=O)N(C)C)cc2ncc(C3=CCOCC3)nc12 (single isomer, unassigned) [Compound 158] | – | 0.4 nM | 120 nM | 2290 nM | > 30200 nM | 339 nM | – | – | 23 nM | 20 nM
COC(=O)c1cc(C(C)Nc2cc(F)cc(Cl)c2)c2nc(N3CCOCC3)cnc2c1 (stereo not drawn) [Compound 99] | – | 52 nM | 4680 nM | 11500 nM | > 30200 nM | 9770 nM | > 513 nM | 355 nM | – | –
OC(CN1CCC1)c1cc(C2CCCN2c2cc(F)cc(F)c2)c2nc(N3CCOCC3)cnc2c1 (single isomer, unassigned) [Compound 95] | – | 0.5 nM | 178 nM | 1100 nM | > 30200 nM | 295 nM | – | – | 34 nM | 18 nM

From patent US10526316B2, “Quinoxaline and pyridopyrazine derivatives as PI3Kβ inhibitors” (Janssen Pharmaceutica NV, priority 2015, dated 2020)
